Consider seven compounds from PubChem BioAssay (NCI).

Each structure is given as a SMILES string. Where “and” joins values, the source holds several entries; their conditions need not be identical. Equal values may be shown once.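 All cell lines were grown in 96-well plates and treated with compound for 48 hours. GI50 is the concentration that inhibits growth by half. TGI denotes the concentration required for complete inhibition of growth.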 A value given as a limit tells only on which side of the number the result lay.

Test systems include OVCAR-4 ovarian; MDA-MB-231 breast; PC-3 prostate; RPMI-8226 leukemia; HCT-116 colon; NCI/ADR-RES ovarian; MDA-MB-435; MOLT-4 leukemia; MCF7 breast; SR leukemia.
Assay in all cases: NCI anticancer screen, dose series, 48 h

Regarding `COc1ccc(/C=C\c2cc(OC)c(OC)c(OC)c2)c(NS(=O)(=O)c2ccc(C)cc2)c1O`, the GI50 was 0.233 µM in the assay with OVCAR-4 ovarian; 0.0516 µM in the assay on MDA-MB-231 breast; 0.04 µM in the assay with PC-3 prostate; 0.0502 µM in the assay on RPMI-8226 leukemia; 0.0357 µM in the assay with HCT-116 colon; 0.169 µM in the assay with NCI/ADR-RES ovarian. In addition, the GI50 was 0.0208 µM in the assay with MDA-MB-435, 0.0421 µM with MOLT-4 leukemia, 0.0333 µM with MCF7 breast and 0.031 µM in the assay with SR leukemia. Besides, the TGI is greater than 100 µM in the assay with OVCAR-4 ovarian; 29.9 µM in the assay with MDA-MB-231 breast; greater than 100 µM in the assay with PC-3 prostate; 23.9 µM in the assay with RPMI-8226 leukemia; greater than 100 µM with HCT-116 colon; 14.7 µM with NCI/ADR-RES ovarian. Further, the TGI in the assay with MDA-MB-435 was 0.0621 µM; with MOLT-4 leukemia, greater than 62.9 µM; in the assay on MCF7 breast, greater than 39.2 µM; in the assay on SR leukemia, greater than 51.5 µM.

`CC[C@H](C)[C@H](NC(=O)C12C3C4C1C1C2C3C41NC(C)=O)C(=O)N(C)[C@H](C[C@@H](OC(C)=O)c1nc(C(=O)N[C@@H](Cc2ccccc2)C[C@H](C)C(=O)OC)cs1)C(C)C` (stereo partly drawn): the GI50 in the assay on OVCAR-4 ovarian is 1.38 µM; in the assay on MDA-MB-231 breast it was 0.435 µM; in the assay on PC-3 prostate, 0.582 µM; with RPMI-8226 leukemia, 0.0735 µM; in the assay on HCT-116 colon it was 0.354 µM; in the assay with NCI/ADR-RES ovarian it was greater than 14.3 µM. Besides, the GI50 in the assay with MDA-MB-435 is 0.0427 µM; with MOLT-4 leukemia, 0.588 µM; with MCF7 breast, 0.0503 µM; in the assay on SR leukemia it was 0.0331 µM. For the same compound, the TGI with OVCAR-4 ovarian is greater than 14.3 µM; in the assay with MDA-MB-231 breast it was greater than 14.3 µM; in the assay on PC-3 prostate, greater than 14.3 µM; in the assay on RPMI-8226 leukemia, greater than 6.78 µM; with HCT-116 colon, greater than 14.3 µM; with NCI/ADR-RES ovarian, greater than 14.3 µM. Moreover, the TGI was 0.625 µM in the assay with MDA-MB-435, greater than 14.3 µM in the assay with MOLT-4 leukemia, greater than 14.3 µM in the assay with MCF7 breast and greater than 14.3 µM in the assay with SR leukemia.

Turning to `COc1cc(C2C(C#N)=C(N)OC3=C2C(=O)c2ccccc2C3=O)cc(OC)c1OC` (stereo not drawn), the GI50 in the assay on OVCAR-4 ovarian was 3.45 µM; in the assay with MDA-MB-231 breast it was 3.53 µM; in the assay on PC-3 prostate it was 0.577 µM; in the assay with RPMI-8226 leukemia, 1.36 µM; in the assay on HCT-116 colon, 0.43 µM; in the assay with NCI/ADR-RES ovarian, 3.23 µM. In addition, the GI50 with MDA-MB-435 is 0.239 µM; in the assay on MOLT-4 leukemia, 4.06 µM; in the assay on MCF7 breast, 0.422 µM; with SR leukemia, 0.337 µM. Besides, the TGI in the assay on OVCAR-4 ovarian was 12.5 µM; with MDA-MB-231 breast, 41.7 µM; with PC-3 prostate, greater than 100 µM; in the assay with RPMI-8226 leukemia, 33.5 µM; with HCT-116 colon, 30.6 µM; in the assay on NCI/ADR-RES ovarian, 22.5 µM. The TGI with MDA-MB-435 is 0.523 µM; with MOLT-4 leukemia, 24.4 µM; in the assay on MCF7 breast it was 16.1 µM; with SR leukemia it was greater than 100 µM.

Turning to `COc1ccc(NC(=O)c2cc(OC)c(OC)c(OC)c2)cc1O`, the GI50 with OVCAR-4 ovarian is 15.3 µM; in the assay with MDA-MB-231 breast, 6.79 µM; in the assay on PC-3 prostate it was 2.52 µM; in the assay on RPMI-8226 leukemia it was 5.93 µM; with HCT-116 colon it was 4.21 µM; in the assay with NCI/ADR-RES ovarian, 1.13 µM. The GI50 in the assay with MDA-MB-435 was 0.241 µM; in the assay on MOLT-4 leukemia it was 3.42 µM; in the assay on MCF7 breast it was 2.58 µM; in the assay with SR leukemia, 0.313 µM. The TGI in the assay with OVCAR-4 ovarian, in the assay on MDA-MB-231 breast, in the assay with PC-3 prostate, in the assay with RPMI-8226 leukemia, with HCT-116 colon and in the assay with NCI/ADR-RES ovarian was greater than 100 µM throughout. In addition, the TGI in the assay on MDA-MB-435 is 0.872 µM; in the assay on MOLT-4 leukemia it was greater than 100 µM; in the assay on MCF7 breast it was greater than 100 µM; in the assay with SR leukemia, greater than 100 µM.

Take `Cn1cnc([N+](=O)[O-])c1Sc1ncnc2c1ncn2C1OC(CO)C(O)C1O` (stereo not drawn): the GI50 in the assay with OVCAR-4 ovarian is 45.3 µM; in the assay with MDA-MB-231 breast it was 9.62 µM; in the assay with PC-3 prostate, 8.66 µM; in the assay on RPMI-8226 leukemia it was 2.93 µM; with HCT-116 colon it was 4.62 µM; in the assay on NCI/ADR-RES ovarian, 4.84 µM. In addition, the GI50 with MDA-MB-435 is 3.6 µM; in the assay on MOLT-4 leukemia, 8.32 µM; in the assay on MCF7 breast, 1.79 µM; in the assay on SR leukemia it was 5.2 µM. Besides, the TGI with OVCAR-4 ovarian, in the assay on MDA-MB-231 breast, with PC-3 prostate, in the assay on RPMI-8226 leukemia, in the assay with HCT-116 colon and in the assay with NCI/ADR-RES ovarian was greater than 100 µM in each case. The TGI is greater than 100 µM in the assay with MDA-MB-435, 64.5 µM in the assay on MOLT-4 leukemia, greater than 100 µM in the assay with MCF7 breast and greater than 100 µM with SR leukemia.

For `CN(C)c1ccc(/C=C/c2ccnc3ccccc23)cc1`, the GI50 with OVCAR-4 ovarian was 16.8 µM; in the assay on MDA-MB-231 breast, 5.36 µM; in the assay on PC-3 prostate, 3.28 µM; in the assay on RPMI-8226 leukemia, 2.77 µM; in the assay on HCT-116 colon, 3.09 µM; with NCI/ADR-RES ovarian, 2.26 µM. Also, the GI50 in the assay on MDA-MB-435 was 1.36 µM; in the assay with MOLT-4 leukemia, 3.59 µM; in the assay with MCF7 breast it was 0.922 µM. Also, the TGI in the assay with OVCAR-4 ovarian was greater than 100 µM; in the assay with MDA-MB-231 breast it was > 100 µM and 30 µM; in the assay with PC-3 prostate it was > 100 µM and 46.6 µM; in the assay on RPMI-8226 leukemia it was > 100 µM and 12.9 µM; with HCT-116 colon, > 100 µM and 13.8 µM; in the assay with MDA-MB-435 it was 72.6 µM and 20.7 µM. The TGI in the assay on MOLT-4 leukemia is 43.6 µM; in the assay on MCF7 breast it was > 100 µM and 44.4 µM; in the assay with SR leukemia, greater than 100 µM.

Take `C[Se]C(=O)CC1=C2C=C(F)C=CC2/C(=C\c2ccc(S(C)=O)cc2)C1C` (stereo not drawn): the GI50 with OVCAR-4 ovarian is 0.131 µM; in the assay on MDA-MB-231 breast, 0.0427 µM; with PC-3 prostate it was 0.174 µM; in the assay with RPMI-8226 leukemia it was 2.31 µM; in the assay with HCT-116 colon, 0.119 µM; with NCI/ADR-RES ovarian, 0.0776 µM. The GI50 in the assay with MDA-MB-435 was less than 0.0117 µM; with MOLT-4 leukemia, 0.392 µM; with MCF7 breast, 0.152 µM; with SR leukemia it was 1.17 µM. In addition, the TGI with OVCAR-4 ovarian is 7.05 µM; in the assay on MDA-MB-231 breast it was 0.327 µM; with PC-3 prostate it was 1.95 µM; in the assay on RPMI-8226 leukemia it was 6.15 µM; in the assay with HCT-116 colon, 1.64 µM; in the assay on NCI/ADR-RES ovarian, 3.96 µM. Moreover, the TGI in the assay on MDA-MB-435 is 0.362 µM; in the assay on MOLT-4 leukemia, greater than 100 µM; in the assay on MCF7 breast, 10.4 µM; in the assay on SR leukemia, greater than 100 µM.
